# Test results as given in ChEMBL document CHEMBL3885861, “Open TG-GATES”.
# Species: Rattus norvegicus
# Assay: Open TG-GATES - Regimen: Daily Repeat
# Type: toxicity, organism-based, Sprague-Dawley
# Design: regimen Daily Repeat, gender Male, age 6 weeks
# Details: in vivo, po, 50 mg/kg, route gavage, dose level Low; for APTT / Bas / Eos / Fbg / Hb / Ht / Lym / MCH / MCHC / MCV / Mono / Neu / PT / Plat / RBC / Ret / WBC: tissue Blood; for KIDNEY_L / KIDNEY_R / KIDNEY_TOTAL: tissue Kidney; for LIVER: tissue Liver; for A/G / ALP / ALT / AST / BUN / CRE / Ca / Cl / DBIL / GLC / IP / K / LDH / Na / PL / RALB / TBIL / TC / TG / TP / gamma-GTP: tissue Plasma
compound,measurement,setting,value
CC(=O)Oc1cc(C(C)C)c(OCCN(C)C)cc1C [MOXISYLYTE],TERMINAL_BW,"72 h, time 3 day",225.1 g
same,APTT,"72 h, time 3 day",21.1 s
same,Bas,"72 h, time 3 day",0%
same,Eos,"72 h, time 3 day",1%
same,Fbg,"72 h, time 3 day",329.8 mg/dL
same,Hb,"72 h, time 3 day",13.7 g/dL
same,Ht,"72 h, time 3 day",39.1%
same,Lym,"72 h, time 3 day",80.6%
same,MCH,"72 h, time 3 day",21.5 pg
same,MCHC,"72 h, time 3 day",35%
same,MCV,"72 h, time 3 day",61.5 fL
same,Mono,"72 h, time 3 day",2.2%
same,Neu,"72 h, time 3 day",14.6%
same,PT,"72 h, time 3 day",16.2 s
same,Plat,"72 h, time 3 day",126.9 x10_4/uL
same,RBC,"72 h, time 3 day",635.6 x10_4/ul
same,Ret,"72 h, time 3 day",6%
same,WBC,"72 h, time 3 day",99.3 x10_2/uL
same,KIDNEY_L,"72 h, time 3 day",1 g
same,KIDNEY_R,"72 h, time 3 day",1 g
same,KIDNEY_TOTAL,"72 h, time 3 day",1.9 g
same,LIVER,"72 h, time 3 day",10.4 g
same,A/G,"72 h, time 3 day",1.2
same,ALP,"72 h, time 3 day",1826.8 IU/L
same,ALT,"72 h, time 3 day",42.8 IU/L
same,AST,"72 h, time 3 day",72.2 IU/L
same,BUN,"72 h, time 3 day",16.2 mg/dL
same,CRE,"72 h, time 3 day",0.2 mg/dL
same,Ca,"72 h, time 3 day",11 mg/dL
same,Cl,"72 h, time 3 day",106.4 meq/L
same,DBIL,"72 h, time 3 day",0.004 mg/dL
same,GLC,"72 h, time 3 day",178.8 mg/dL
same,IP,"72 h, time 3 day",7.4 mg/dL
same,K,"72 h, time 3 day",4.5 meq/L
same,LDH,"72 h, time 3 day",242.8 IU/L
same,Na,"72 h, time 3 day",141.4 meq/L
same,PL,"72 h, time 3 day",158.8 mg/dL
same,RALB,"72 h, time 3 day",3.1 g/dL
same,TBIL,"72 h, time 3 day",0.004 mg/dL
same,TC,"72 h, time 3 day",78.2 mg/dL
same,TG,"72 h, time 3 day",108.8 mg/dL
same,TP,"72 h, time 3 day",5.7 g/dL
same,gamma-GTP,"72 h, time 3 day",1.2 IU/L
same,TERMINAL_BW,"[…], time 7 day",248.6 g
same,TERMINAL_BW,"[…], time 14 day",317.3 g
same,TERMINAL_BW,"[…], time 28 day",361 g
same,APTT,"[…], time 7 day",21.8 s
same,Bas,"[…], time 7 day",0%
same,Eos,"[…], time 7 day",0.6%
same,Fbg,"[…], time 7 day",312.6 mg/dL
same,Hb,"[…], time 7 day",13.7 g/dL
same,Ht,"[…], time 7 day",39.2%
same,Lym,"[…], time 7 day",79.6%
same,MCH,"[…], time 7 day",20.9 pg
same,MCHC,"[…], time 7 day",35.1%
same,MCV,"[…], time 7 day",59.5 fL
same,Mono,"[…], time 7 day",2.2%
same,Neu,"[…], time 7 day",16.8%
same,PT,"[…], time 7 day",15.9 s
same,Plat,"[…], time 7 day",122.1 x10_4/uL
same,RBC,"[…], time 7 day",659 x10_4/ul
same,Ret,"[…], time 7 day",4.9%
same,WBC,"[…], time 7 day",88.2 x10_2/uL
same,APTT,"[…], time 14 day",20.8 s
same,Bas,"[…], time 14 day",0%
same,Eos,"[…], time 14 day",1%
same,Fbg,"[…], time 14 day",308.8 mg/dL
same,Hb,"[…], time 14 day",14.2 g/dL
same,Ht,"[…], time 14 day",39.3%
same,Lym,"[…], time 14 day",77.8%
same,MCH,"[…], time 14 day",20.7 pg
same,MCHC,"[…], time 14 day",36.2%
same,MCV,"[…], time 14 day",57.2 fL
same,Mono,"[…], time 14 day",2.4%
same,Neu,"[…], time 14 day",18%
same,PT,"[…], time 14 day",16.1 s
same,Plat,"[…], time 14 day",108.1 x10_4/uL
same,RBC,"[…], time 14 day",686.8 x10_4/ul
same,Ret,"[…], time 14 day",5.1%
same,WBC,"[…], time 14 day",113.2 x10_2/uL
same,APTT,"[…], time 28 day",24.3 s
same,Bas,"[…], time 28 day",0%
same,Eos,"[…], time 28 day",1.2%
same,Fbg,"[…], time 28 day",324.8 mg/dL
same,Hb,"[…], time 28 day",14.9 g/dL
same,Ht,"[…], time 28 day",41.8%
same,Lym,"[…], time 28 day",84%
same,MCH,"[…], time 28 day",19.3 pg
same,MCHC,"[…], time 28 day",35.6%
same,MCV,"[…], time 28 day",54.3 fL
same,Mono,"[…], time 28 day",2%
same,Neu,"[…], time 28 day",12%
same,PT,"[…], time 28 day",16 s
same,Plat,"[…], time 28 day",101.5 x10_4/uL
same,RBC,"[…], time 28 day",770 x10_4/ul
same,Ret,"[…], time 28 day",2.5%
same,WBC,"[…], time 28 day",142.9 x10_2/uL
same,KIDNEY_L,"[…], time 7 day",1.1 g
same,KIDNEY_R,"[…], time 7 day",1.1 g
same,KIDNEY_TOTAL,"[…], time 7 day",2.2 g
same,KIDNEY_L,"[…], time 14 day",1.3 g
same,KIDNEY_R,"[…], time 14 day",1.2 g
same,KIDNEY_TOTAL,"[…], time 14 day",2.5 g
same,KIDNEY_L,"[…], time 28 day",1.4 g
same,KIDNEY_R,"[…], time 28 day",1.4 g
same,KIDNEY_TOTAL,"[…], time 28 day",2.8 g
same,LIVER,"[…], time 7 day",11.2 g
same,LIVER,"[…], time 14 day",14 g
same,LIVER,"[…], time 28 day",14.8 g
same,A/G,"[…], time 7 day",1.2
same,ALP,"[…], time 7 day",1475.2 IU/L
same,ALT,"[…], time 7 day",45 IU/L
same,AST,"[…], time 7 day",82.6 IU/L
same,BUN,"[…], time 7 day",16.6 mg/dL
same,CRE,"[…], time 7 day",0.2 mg/dL
same,Ca,"[…], time 7 day",10.6 mg/dL
same,Cl,"[…], time 7 day",106.6 meq/L
same,DBIL,"[…], time 7 day",0 mg/dL
same,GLC,"[…], time 7 day",179.4 mg/dL
same,IP,"[…], time 7 day",6.8 mg/dL
same,K,"[…], time 7 day",4.1 meq/L
same,LDH,"[…], time 7 day",202 IU/L
same,Na,"[…], time 7 day",141.6 meq/L
same,PL,"[…], time 7 day",146.6 mg/dL
same,RALB,"[…], time 7 day",3 g/dL
same,TBIL,"[…], time 7 day",0 mg/dL
same,TC,"[…], time 7 day",70.6 mg/dL
same,TG,"[…], time 7 day",144 mg/dL
same,TP,"[…], time 7 day",5.5 g/dL
same,gamma-GTP,"[…], time 7 day",1.2 IU/L
same,A/G,"[…], time 14 day",1.2
same,ALP,"[…], time 14 day",1349.4 IU/L
same,ALT,"[…], time 14 day",45.8 IU/L
same,AST,"[…], time 14 day",77.8 IU/L
same,BUN,"[…], time 14 day",19.8 mg/dL
same,CRE,"[…], time 14 day",0.2 mg/dL
same,Ca,"[…], time 14 day",10.8 mg/dL
same,Cl,"[…], time 14 day",107 meq/L
same,DBIL,"[…], time 14 day",0 mg/dL
same,GLC,"[…], time 14 day",186.6 mg/dL
same,IP,"[…], time 14 day",6.3 mg/dL
same,K,"[…], time 14 day",4.4 meq/L
same,LDH,"[…], time 14 day",256 IU/L
same,Na,"[…], time 14 day",141 meq/L
same,PL,"[…], time 14 day",156 mg/dL
same,RALB,"[…], time 14 day",3.2 g/dL
same,TBIL,"[…], time 14 day",0.002 mg/dL
same,TC,"[…], time 14 day",73.2 mg/dL
same,TG,"[…], time 14 day",184.6 mg/dL
same,TP,"[…], time 14 day",5.8 g/dL
same,gamma-GTP,"[…], time 14 day",1.4 IU/L
same,A/G,"[…], time 28 day",1
same,ALP,"[…], time 28 day",1078.4 IU/L
same,ALT,"[…], time 28 day",40.2 IU/L
same,AST,"[…], time 28 day",66.8 IU/L
same,BUN,"[…], time 28 day",17 mg/dL
same,CRE,"[…], time 28 day",0.2 mg/dL
same,Ca,"[…], time 28 day",10.4 mg/dL
same,Cl,"[…], time 28 day",106.6 meq/L
same,DBIL,"[…], time 28 day",0.002 mg/dL
same,GLC,"[…], time 28 day",184.4 mg/dL
same,IP,"[…], time 28 day",6.4 mg/dL
same,K,"[…], time 28 day",4.2 meq/L
same,LDH,"[…], time 28 day",147 IU/L
same,Na,"[…], time 28 day",142 meq/L
same,PL,"[…], time 28 day",151.2 mg/dL
same,RALB,"[…], time 28 day",3 g/dL
same,TBIL,"[…], time 28 day",0.002 mg/dL
same,TC,"[…], time 28 day",70 mg/dL
same,TG,"[…], time 28 day",170.4 mg/dL
same,TP,"[…], time 28 day",6 g/dL
same,gamma-GTP,"[…], time 28 day",2 IU/L
